Assay results published in the kinase profiling compilation of Christmann-Franck et al. (2016).

What was measured:
Assay in all cases: KINOMEscan competition binding
MYLK3 (human) = MYLK3 (human) (UniProt Q32MK0)
MAP3K12 (human) = MAP3K12 (human) (UniProt Q12852)
ERBB4 (human) = ERBB4 (human) (UniProt Q15303)
ERBB4 (human), sequence (Q15303 whole entry, looked up): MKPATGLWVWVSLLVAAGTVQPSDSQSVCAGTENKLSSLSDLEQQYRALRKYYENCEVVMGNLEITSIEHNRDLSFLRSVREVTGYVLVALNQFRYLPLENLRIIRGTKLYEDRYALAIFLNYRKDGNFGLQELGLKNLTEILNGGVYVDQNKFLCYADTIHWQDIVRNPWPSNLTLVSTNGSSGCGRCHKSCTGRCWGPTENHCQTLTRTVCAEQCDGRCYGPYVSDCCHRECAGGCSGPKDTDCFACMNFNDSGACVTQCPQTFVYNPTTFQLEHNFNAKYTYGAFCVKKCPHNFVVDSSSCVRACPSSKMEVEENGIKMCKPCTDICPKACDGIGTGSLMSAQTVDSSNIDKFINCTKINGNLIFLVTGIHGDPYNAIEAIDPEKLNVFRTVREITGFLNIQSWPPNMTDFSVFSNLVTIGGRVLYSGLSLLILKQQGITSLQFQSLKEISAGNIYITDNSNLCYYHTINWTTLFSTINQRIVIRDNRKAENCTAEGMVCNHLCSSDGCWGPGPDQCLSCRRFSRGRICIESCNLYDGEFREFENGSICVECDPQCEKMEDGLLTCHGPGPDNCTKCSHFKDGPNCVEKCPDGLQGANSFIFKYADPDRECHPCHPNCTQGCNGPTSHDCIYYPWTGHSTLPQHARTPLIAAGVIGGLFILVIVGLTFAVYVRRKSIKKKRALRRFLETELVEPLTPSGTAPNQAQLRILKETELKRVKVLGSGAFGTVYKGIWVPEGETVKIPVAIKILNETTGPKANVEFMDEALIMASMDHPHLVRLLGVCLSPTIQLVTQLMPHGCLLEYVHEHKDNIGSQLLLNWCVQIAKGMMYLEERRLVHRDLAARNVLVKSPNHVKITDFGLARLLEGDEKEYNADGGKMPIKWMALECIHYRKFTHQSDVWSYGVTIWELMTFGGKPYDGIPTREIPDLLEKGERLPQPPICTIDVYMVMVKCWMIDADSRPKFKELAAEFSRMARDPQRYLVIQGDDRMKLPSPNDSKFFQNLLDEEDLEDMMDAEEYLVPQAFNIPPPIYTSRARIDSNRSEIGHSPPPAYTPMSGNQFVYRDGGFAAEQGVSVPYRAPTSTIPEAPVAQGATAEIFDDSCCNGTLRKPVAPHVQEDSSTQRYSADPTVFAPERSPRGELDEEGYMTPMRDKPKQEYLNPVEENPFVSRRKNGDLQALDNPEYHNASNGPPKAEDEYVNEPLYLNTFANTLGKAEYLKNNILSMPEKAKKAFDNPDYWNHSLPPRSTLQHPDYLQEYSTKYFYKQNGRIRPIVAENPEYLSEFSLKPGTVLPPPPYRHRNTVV

MYLK3 (human), sequence (Q32MK0 whole entry, looked up): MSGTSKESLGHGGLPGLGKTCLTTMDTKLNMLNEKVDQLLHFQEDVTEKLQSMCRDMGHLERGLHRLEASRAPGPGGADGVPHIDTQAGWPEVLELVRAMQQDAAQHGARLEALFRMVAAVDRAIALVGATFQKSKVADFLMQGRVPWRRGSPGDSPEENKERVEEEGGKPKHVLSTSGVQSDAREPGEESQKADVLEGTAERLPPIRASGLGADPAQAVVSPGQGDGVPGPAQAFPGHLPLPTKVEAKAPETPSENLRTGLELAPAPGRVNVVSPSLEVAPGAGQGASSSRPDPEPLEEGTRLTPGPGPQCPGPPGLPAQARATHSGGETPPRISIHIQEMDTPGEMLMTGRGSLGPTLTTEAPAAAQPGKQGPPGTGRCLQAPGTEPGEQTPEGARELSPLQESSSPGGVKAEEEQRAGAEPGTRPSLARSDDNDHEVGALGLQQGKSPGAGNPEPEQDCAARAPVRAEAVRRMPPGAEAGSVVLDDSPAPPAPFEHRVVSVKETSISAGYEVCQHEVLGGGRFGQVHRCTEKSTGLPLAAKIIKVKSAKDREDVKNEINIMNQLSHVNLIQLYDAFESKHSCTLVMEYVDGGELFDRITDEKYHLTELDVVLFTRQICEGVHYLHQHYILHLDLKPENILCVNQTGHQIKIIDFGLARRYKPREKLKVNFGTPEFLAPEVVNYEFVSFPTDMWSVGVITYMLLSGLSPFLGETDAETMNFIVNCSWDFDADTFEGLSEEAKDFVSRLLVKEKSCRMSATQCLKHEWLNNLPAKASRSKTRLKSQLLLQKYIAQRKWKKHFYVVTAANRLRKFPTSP
MAP3K12 (human), sequence (Q12852 whole entry, looked up): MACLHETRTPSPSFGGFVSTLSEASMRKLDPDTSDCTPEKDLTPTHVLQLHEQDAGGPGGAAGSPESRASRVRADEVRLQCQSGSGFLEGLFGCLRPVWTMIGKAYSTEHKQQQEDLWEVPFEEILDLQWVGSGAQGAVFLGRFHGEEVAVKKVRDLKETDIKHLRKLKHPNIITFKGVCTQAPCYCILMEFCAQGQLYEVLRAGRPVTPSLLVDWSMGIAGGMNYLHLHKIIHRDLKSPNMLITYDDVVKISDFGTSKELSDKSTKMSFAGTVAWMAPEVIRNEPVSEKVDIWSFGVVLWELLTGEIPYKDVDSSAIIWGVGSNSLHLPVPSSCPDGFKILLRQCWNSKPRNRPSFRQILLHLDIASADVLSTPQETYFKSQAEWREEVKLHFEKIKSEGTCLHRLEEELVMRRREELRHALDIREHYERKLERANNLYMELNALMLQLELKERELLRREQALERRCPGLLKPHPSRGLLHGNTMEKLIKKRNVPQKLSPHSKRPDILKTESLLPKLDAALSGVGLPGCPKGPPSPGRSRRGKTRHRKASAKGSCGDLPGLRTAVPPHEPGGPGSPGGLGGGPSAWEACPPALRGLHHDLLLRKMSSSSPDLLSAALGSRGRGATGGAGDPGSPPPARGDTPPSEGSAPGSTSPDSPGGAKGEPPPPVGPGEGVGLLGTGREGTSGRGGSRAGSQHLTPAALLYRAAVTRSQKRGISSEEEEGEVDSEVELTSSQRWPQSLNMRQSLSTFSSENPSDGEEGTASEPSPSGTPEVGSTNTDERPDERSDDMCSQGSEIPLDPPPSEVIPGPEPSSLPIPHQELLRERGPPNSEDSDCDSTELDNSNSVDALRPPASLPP

Compound	Kd (MYLK3 (human))	Kd (MAP3K12 (human))	Kd (ERBB4 (human))
Nc1nc(Nc2ccc(S(N)(=O)=O)cc2)nn1C(=O)c1c(F)cccc1F	> 10 µM	–	> 10 µM
Oc1ccc(-c2nc(-c3ccc(F)cc3)c(-c3ccncc3)[nH]2)cc1	> 10 µM	> 10 µM	> 10 µM

Next, values leading:

Kd (MYLK3 (human))	Kd (MAP3K12 (human))	Kd (ERBB4 (human))	Compound
> 10 µM	> 10 µM	–	COCC(=O)NC/C=C/c1ccc2ncnc(Nc3ccc(Oc4ccc(C)nc4)c(C)c3)c2c1
> 10 µM	> 10 µM	> 10 µM	NC(=O)c1ccc(-c2nc(-c3ccccn3)c(-c3ccc4c(c3)OCO4)[nH]2)cc1
> 10 µM	–	–	CCOc1cc2ncc(C#N)c(Nc3ccc(F)c(Cl)c3)c2cc1NC(=O)/C=C/CN(C)C
